We go through one compound from patent US10513511B2, “Aqueous suspension formulation comprising 4-(4-(4-(((3R,5R)-5-((1H-1,2,4-triazol-1-yl)methyl)-5-(2,4-difluoro-phenyl)tetrahydrofuran-3-yl)methoxy)-3-methylphenyl) or a pharmaceutically acceptable salt thereof” (PULMOCIDE LIMITED, priority 2015, dated 2019).

One may read the CC50 as the concentration that lowers cell viability or growth by half. In general, MIC50 refers to an inhibitory concentration at the 50% level, which refers to growth in some studies and to a panel of isolates in others.

Structures are written as SMILES. Converted amounts (≈) assume the structure as drawn.

Holding throughout (type): cell-based
The subject of data set [1] is BEAS2B cells. Nature of the data set: Cell viability: resazurin assay. The following applies: at concentrations indicated in Table 4. As for the experimental part: (§1) BEAS2B cells were seeded in 384-well plates (100 μL; 3000/well/; BD Falcon, Catalogue No 353962) in RPMI-LHC8 (RPMI-1640 and LHC8 media combined in equal proportions) one day before experimentation. For cell-free control wells, RPMI-LHC8 (100 μL) was added. Test compounds (0.5 μL of a DMSO solution) were added to give a final DMSO concentration of 0.5% using an Integra VIAFLO 96 (Integra, Zizers, Switzerland). BEAS2B cells were incubated with each test compound for 1 day (37° C./5% CO2 in RPMI-LHC8). After addition of resazurin stock solution (5 μL, 0.04%) the plates were incubated for a further 4 hr (37° C./5% CO2). The fluorescence of each well at 545 nm (excitation) and 590 nm (emission) was determined using a multi-scanner (Clariostar: BMG Labtech). The percentage loss of cell viability was calculated for each well relative to vehicle (0.5% DMSO) treatment. Where appropriate, a CC50 value was calculated from the concentration-response curve generated from the concentration-response curve for each test compound.
A general note: The colour change of resazurin is a common sign of viable cells or microbes.

Data set [2] can be described thus: Cell viability: resazurin assay. The conditions noted are these: human, BEAS2B cells; 1 day incubation, resazurin; n = 3. The protocol: as §1
Data set [3] concerns Aspergillus fumigatus NCPF7100. Put plainly: Planktonic fungus growth: broth microdilution assay (NCPF7100). The following applies: Aspergillus fumigatus, NCPF7100, read-out: MIC75 Values against Aspergillus fumigatus isolate NCPF7100.
Data set [4] deals with Aspergillus fumigatus (NCPF2010). Nature of the data set: Aspergillus fumigatus infection of BEAS2B bronchial epithelial cells (galactomannan). The conditions noted are these: NCPF2010, 24 h, read-out: Infection of BEAS2B cells MIC50. The protocol:
BEAS2B cells were seeded in 96-well plates (100 μL; 3×10^4 cells/well; Catalogue No 3596, Sigma Aldrich, Dorset, UK) in 10% FBS RPMI-1640 and were then incubated (37° C., 5% CO2) for one day before experimentation. Test compounds (0.5 μL DMSO solution) or vehicle (DMSO) were added to each well to give a final DMSO concentration of 0.5%. BEAS2B cells were incubated with test compounds for 1 hr (35° C., 5% CO2) before infection with Aspergillus fumigatus (20 uL; Public Health England) conidia suspension (0.5×10^5/mL in 10% FBS RPMI-1640). The plate was incubated for 24 hr (35° C., 5% CO2). Supernatant (50 uL) was collected and transferred to a PCR plate (Catalogue No L1402-9700, Starlab, Milton Keynes, UK), which was frozen (−20° C.) until use. After thawing, supernatant (5 μL) was diluted 1:20 by adding R7-PBS solution (95 μL; 1:4 R7 to PBS; Bio-Rad Laboratories, Redmond, Wash., USA). Galactomannan levels in these samples (50 μL) were measured using Platelia GM-EIA kits (Bio-Rad Laboratories, Redmond, Wash., USA). The percentage inhibition for each well was calculated and the IC50 value was calculated from the concentration-response curve generated for each test compound.

Data set [5] has as its system Aspergillus fumigatus NCPF7099. Nature of the data set: Planktonic fungus growth: broth microdilution assay (NCPF7099). The conditions noted are these: Aspergillus fumigatus, NCPF7099, n = 2-3, read-out: MIC75 Values against Aspergillus fumigatus isolate NCPF7099. As for the experimental part: (§2) This assay was conducted using a modified method published by EUCAST (Rodriguez-Tudela, et al., 2008). Spores of Aspergillus fumigatus (NCPF2010, NCPF7010 [methionine 220 mutation], NCPF7099 [Glycine G54 mutation]) from Public Health England, Wiltshire; TR34/L98H mutants from St Louis Hospital, Paris, France; TR46/Y121F/T289A mutants from University of Delhi, Delhi, India) were cultured in Sabouraud dextrose agar for 3 days. A stock spore suspension was prepared from a Sabouraud dextrose agar culture by washing with PBS-tween (10 mL; phosphate buffered saline containing 0.05% Tween-20, 100 U/mL penicillin and 100 U/mL streptomycin). The spore count was assessed using a Neubauer haemocytometer and then adjusted to 10^6 spores/mL with PBS. A working suspension of spores (2×10^5 spores/mL) was prepared in filter sterilised, BSA MOPS RPMI-1640 (50 mL; RPMI-1640 containing 2 mM L-glutamine, 0.5% BSA, 2% glucose, 0.165 M MOPS, buffered to pH 7 with NaOH).
(§3) For the assay, BSA MOPS RPMI-1640 (50 μL/well) was added throughout the 384-well plate (Catalogue number 353962, BD Falcon, Oxford, UK) first. Test compounds (0.5 μL DMSO solution) were then added in quadruplicate using an Integra VIAFLO 96 (Integra, Zizers, Switzerland), and mixed well using a plate mixer. Subsequently 50 μL of the working spore suspension prepared above was added to all wells except non-spore control wells. For non-spore control wells, BSA MOPS-RPMI solution (50 μL/well) was added instead. The plate was covered with a plastic lid, and incubated (35° C. with ambient air) for 48 hr. The OD of each well at 530 nm was determined using a multi-scanner (Clariostar: BMG, Buckinghamshire, UK). The percentage inhibition for each well was calculated and the MIC50, MIC75 and MIC90 values were calculated from the concentration-response curve generated for each test compound.
Background: Broth dilution looks for growth in wells or tubes with falling amounts of substance.

Data set [6] has as its system Aspergillus fumigatus TR46 (TR46/Y121F/T289A). Put plainly: Planktonic fungus growth: broth microdilution assay (TR46). The conditions noted are these: Aspergillus fumigatus, read-out: MIC75 Values against Aspergillus fumigatus isolate TR46. The protocol: as §2, §3
Data set [7] has as its system Aspergillus fumigatus NCPF2010. Put plainly: Planktonic fungus growth: broth microdilution assay (NCPF2010). The conditions noted are these: Aspergillus fumigatus, NCPF2010, n = 2-3, read-out: MIC75 Values against Aspergillus fumigatus isolate NCPF2010. The protocol:
as §2, §3

The test system of data set [8] is Aspergillus fumigatus L98H (TR34/L98H). Put plainly: Planktonic fungus growth: broth microdilution assay (L98H). The conditions noted are these: Aspergillus fumigatus, read-out: MIC75 Values against Aspergillus fumigatus isolate L98H. The protocol: as §2, §3

Regarding `Cc1cc(N2CCN(c3ccc(C(=O)N[C@H]4CCCC[C@H]4O)cc3)CC2)ccc1OC[C@@H]1CO[C@@](Cn2cncn2)(c2ccc(F)cc2F)C1` [Compound (Ic), 4-(4-(4-(((3R,5R)-5-((1H-1,2,4-triazol-1-yl)methyl)-5-(2,4-difluorophenyl)tetrahydrofuran-3-yl)methoxy)-3-methylphenyl)piperazin-1-yl)-N-((1S,2R)-2-hydroxycyclohexyl)benzamide], the “effect on the viability of BEAS2B bronchial epithelial cells” value in data set [1] was “no or little effect”. The compound further displayed a CC50 at 1 day in data set [2] above 14.6 µM. For the same compound, the MIC in data set [3] was determined as 0.0109 µM (≈ 7.49 ng/mL); in data set [5], 0.0115 µM (≈ 7.9 ng/mL); in data set [6] it was 0.164 µM (≈ 113 ng/mL); in data set [7], 0.00227 µM (≈ 1.56 ng/mL); in data set [8], 0.0549 µM (≈ 37.7 ng/mL). Further, the MIC50 in data set [4] is 0.00186 µM (≈ 1.28 ng/mL).
